# Reference: US8097615B2, “Neurofibrillary labels” (Wista Laboratories Ltd., priority 2001, dated 2012)
# “And” between values parts separate entries of the source, which are not always exact repeats. Identical values can stand only once.
# Tests used:
# neurofibrillary tangles = assay: Fluorescence labelling of tangles (sections, ifI tangle suspensions); type: binding, human
# Method: In ifI suspensions such as this, tangles can be seen by blue fluorescence which is […] from that associated with binding of contaminants in the preparation. […] (a) Chemical labelling with the biotinylated benzothiazole analogue shown as 4b in FIG. 4. PHFs were deposited on a carbon-coated grid after Pronase digestion, and incubated briefly with compound 4b, and then incubated with an anti-biotin antibody preparation that had been conjugated with colloidal gold. […] (b) mAb 423 immunolabelling of isolated PHFs after Pronase digestion., followed by incubation with a gold-conjugated goat anti-mouse second antibody as described in Novak et al. 1993 (Novak M, Kabat J, Wischik C M (1993) “Molecular characterisation of the minimal protease-resistant tau unit of the Alzheimers' disease paired helical filament”, EMBO J. 12: 365-370). As shown in this paper, mAb 423 labels PHFs derived from intracellular tangles (which preserve N-terminal tau immunoreactivity in the fuzzy outer coat) poorly, but Pronase digested PHFs strongly.
# Serial 16 μm sections are cut from the hippocampus of a case dying with clinically and neuropathologically confirmed AD. […]
# A Leitz fluorescence microscope fitted with a photo-multiplyer tube (Model MPV-2) was used to quantitate fluorescence emission. […]
# PHFs = assay: Spectrofluorometry of primulin in solution and bound to PHFs (ifII); type: binding
# Method: These measurements were carried out in a Perkin-Elmer spectrofluorimeter (model MPF-3). A concentration of ligand of 0.00001% was routinely used for all measurements. […] All measurements were therefore carried out at a standard excitation wavelength of 370 nm, and a constant slit width of 3 mm.
# Further investigations into the relationship between aggregation-dependent tau ligands and tau aggregation inhibitors were carried out using primulin. Primulin in solution has a fluorescence peak at 520 nm. This shifts to 470 nm when primulin is bound within a pure preparation of PHFs (FIG. 6). […] Therefore, binding by such compounds is dependent on the polymerised state of tau found in the PHF, but is not present in free tau.
# Compounds have been identified which disrupt the structure of the PHF and reverse the proteolytic stability of the PHF core (see WO 96/30766). Examples of such compounds are shown in accompanying FIG. 8. The present inventors have now identified that these compounds bind to tau at a specific binding site within the high affinity tau-tau binding domain.
# tau-tau binding = biological target: T1, tau-tau binding (Homo sapiens, UniProt P10636); assay: Solid-phase tau-tau binding assay (dGA solid phase, dGAE liquid phase), tau Preparation 2; type: biochemical; details: Preparation 2
# T1 construct: a truncated tau protein corresponding to the core fragment and terminating at Ala390-dGA; dGAE which terminates at Glu-391; made in house; host or cells: E. coli BL21 (DE3), pRK172; DE52 flow-through, P11 phosphocellulose, PEG concentration, no heat step (Preparation 2)
# T1 sequence (P10636 614-708 limits assumed): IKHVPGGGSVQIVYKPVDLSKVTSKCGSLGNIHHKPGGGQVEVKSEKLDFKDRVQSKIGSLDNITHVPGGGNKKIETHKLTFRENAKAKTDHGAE
# Method: Preparation 2 differs from Preparation 1 above in the following respects: (1) The concentration of cells at the sonication stage is increased by 5-fold. (2) A batchwise adsorption of non-tau proteins to DE52 is included. (3) The proteins are not subjected to heat treatment. (4) The final step involves concentration using polyethylene glycol.
# Escherichia coli is grown in 2×TY medium (Oxoid) supplemented with ampicillin (50 micrograms per ml) to late-logarithmic phase. Cells from 5 liters of culture are harvested by centrifugation and the cell pellets frozen rapidly over liquid nitrogen. The pellets are taken up with 50 mM PIPES (pH 6.8) containing 1 mM EDTA, 1 mM dithiothreitol and 1 mM phenylmethylsulphonylfluoride (PMSF) and bacteria lysed by sonication (2×3 min) at 4 C. The mixture is centrifuged at 10,000 rpm for 20 min. The supernatant is rotated with 1 gram of Whatman DE52 for 3 hr at 4 C. The mixture is separated on a column and the flow-through material that fails to bind to DE52 is incubated for 3 hr at 4 C, with rotation, with 0.4 g of Whatman P11 (freshly regenerated according to manufacturer's recommendations). The column is washed with column buffer (50 mM PIPES, pH 6.8 containing 1 mM EGTA, 5 mM EDTA, 0.2 mM MgCl2, 5 mM β-mercaptoethanol and 1 mM PMSF). Tau protein is eluted stepwise with a 0.1 to 1 M gradient of KCl in column buffer. Fractions containing tau (determined by immunoassay) are pooled and dialysed against 80 mM PIPES (pH6.8) containing 1 mM EGTA, 1 mM MgCl2 and 5 mM β-mercatoethanol, using dialysis tubing with a molecular weight cut-off of 1,000. The dialysate is concentrated by applying polyethylene glycol 8000 to the outside of the sac for 2-3 hr. The final concentration of tau ranged from 3 to 10 mg per ml.
# When the proteins dGA and dGAE were prepared as indicated above (“Preparation 2”), the properties of the tau-tau binding assay were altered relative to the properties obtained using the preparative method described in WO96/30766 (“Preparation 1”).
# The assay is performed using 96 well PVC plates (Falcon Cat. No. 353912 are used), and the following steps:
# 1. 50 μl dGA (˜10 μg/ml) in carbonate buffer, incubate 1 h at 37° C.
# (Carbonate buffer: 50 mM carbonate bicarbonate, pH 9.6 (Na2CO3 1.59 g/l, NaHCO3 2.93 g/l))
# 2. Wash plate in 0.05% Tween-20.
# 3. 200 μl PBS+2% Marvel, incubate 1 h at 37° C.
# 4. Rinse plate 2× in deionised water, then wash in 0.05% Tween-20.
# 5. 50 μl dGAE (˜10 μg/ml) plus drug in PBS+1% fish skin gelatin+0.05% Tween-20, incubate 1 h at 37° C.
# 6. Wash plate in 0.05% Tween-20.
# 7. 50 μl antibody 423 (1:10 dilution in PBS+2% Marvel), incubate 1 h at 37° C.
# 8. Rinse plate 2× in deionised water, then wash in 0.05% Tween-20.
# 9. 50 μl HRP-anti-mouse (1:1000 dilution in PBS+0.05% Tween-20), incubate 1 h at 37° C.
# 10. Wash plate in 0.05% Tween-20, then rinse 1× with deionised water.
# 11. 50 μl substrate solution, read immediately initial rate over 2 min in plate reader at OD650.
# (Substrate solution: 50 mM sodium acetate, pH 5.0+TMB (1 ml/100 ml of a 10 mg/ml solution in DMSO)+H2O2 (10 μl/100 ml)).
structure (smiles),measurement,setting,value
Cc1ccc2sc(-c3ccc4sc(-c5ccc(N)cc5)nc4c3)nc2c1S(=O)(=O)[O-].[Na+] [primulin],labelling of tangles,neurofibrillary tangles,label tangles
same,excitation peak,PHFs; ligand 0.00001%,370 nm
same,fluorescence peak when bound within PHFs,PHFs; pure preparation of PHFs,460 nm and 470 nm
same,fluorescence (emission) peak in solution,PHFs; unbound,515 nm and 520 nm
same,inhibition of tau-tau binding,tau-tau binding,no inhibitory activity
